From the Kinase Knowledgebase extract (Sharma et al. 2016)
pIC50: −log10 of the molar value. Values belong to the compound of their own block, whether it stands above or below them.

Tests used:
EGFR (human) [1] = target: EGFR (human) (UniProt P00533); details: concentration not given here
[2] = target: PIK3CB;PIK3CG;PIK3CD;PIK3CA (human) (UniProt P48736); test: Assessment of PIK3CA/PIK3CB/PIK3CD/PIK3CG Kinase Activity
EGFR (human) [3] = target: EGFR (human) (UniProt P00533)
[4] = target: PIK3CB;PIK3CD;PIK3CA (human) (UniProt O00329); test: Assessment of PI3K Kinase Activity
EGFR [5] = target: EGFR (UniProt P00533)
[6] = target: PIK3CB;PIK3CG;PIK3CD;PIK3CA (human) (UniProt P48736); test: Antiproliferation of Anti-IgM stimulated Human B Cells by PI3K Inhibitors
EGFR (human) [7] = target: EGFR (human) (UniProt P00533); details: a431
EGFR (human) [8] = target: EGFR (human) (UniProt P00533); remark: listed apart in the source
EGFR (human) [9] = target: EGFR (human) (UniProt P00533); details: a431; remark: listed apart in the source
EGFR (human) [10] = target: EGFR (human) (UniProt P00533); details: a431; remark: listed apart in the source
EGFR (human) [11] = target: EGFR (human) (UniProt P00533); details: kb
PIK3CA (bovine) = PIK3CA (bovine) (UniProt P32871); test: Inhibition of PIK3CA Kinase Activity
EGFR [12] = target: EGFR (UniProt P00533); details: a431
EGFR [13] = target: EGFR (UniProt P00533); details: swiss 3t3 fibroblast
PIK3CA (human) [14] = target: PIK3CA (human) (UniProt P42336); test: Antiproliferation of NZB5 Cell Line Using Thymidine Depletion Assay
PIK3CA (human) [15] = target: PIK3CA (human) (UniProt P42336); test: Antiproliferation of NZOV9 Cell Line Using Thymidine Depletion Assay
PIK3CA (human) [16] = target: PIK3CA (human) (UniProt P42336); test: Assessment of PIK3CA Kinase Activity in NZB5 Cells
PIK3CA (human) [17] = target: PIK3CA (human) (UniProt P42336); test: Assessment of PIK3CA Kinase Activity in NZOV9 Cells
EGFR [18] = target: EGFR (UniProt P00533); remark: listed apart in the source
PIK3CA (human) [19] = target: PIK3CA (human) (UniProt P42336); test: Inhibition of PIK3CA Kinase Activity
PIK3CA (human) [20] = target: PIK3CA (human) (UniProt P42336); test: Assesment of Cell Proliferation of IGROV-1 Cells Using SRB Assay
MAPK14 (human) [21] = target: MAPK14 (human) (UniProt Q16539); test: Inhibition of MAPK14 Kinase Activity
EGFR (human) [22] = target: EGFR (human) (UniProt P00533); remark: listed apart in the source
EGFR (human) [23] = target: EGFR (human) (UniProt P00533); details: concentration not given here; remark: listed apart in the source
MAPK14 (human) [24] = target: MAPK14 (human) (UniProt Q16539); test: Inhibition of TNF-alpha Production in LPS Stimulated Whole Blood; details: blood cells
MAPK14 (human) [25] = target: MAPK14 (human) (UniProt Q16539); test: Inhibition of IL-beta Production in LPS Stimulated Whole Blood; details: blood cells
EGFR (human) [26] = target: EGFR (human) (UniProt P00533); remark: listed apart in the source
PIK3CB (Human) = PIK3CB (Human) (UniProt P42338); test: Inhibition of PIK3CB Kinase (ATP Loss) Activity
EGFR (human) [27] = target: EGFR (human) (UniProt P00533); remark: listed apart in the source

Sequence of MAPK14 (human) (Q16539 whole entry, looked up): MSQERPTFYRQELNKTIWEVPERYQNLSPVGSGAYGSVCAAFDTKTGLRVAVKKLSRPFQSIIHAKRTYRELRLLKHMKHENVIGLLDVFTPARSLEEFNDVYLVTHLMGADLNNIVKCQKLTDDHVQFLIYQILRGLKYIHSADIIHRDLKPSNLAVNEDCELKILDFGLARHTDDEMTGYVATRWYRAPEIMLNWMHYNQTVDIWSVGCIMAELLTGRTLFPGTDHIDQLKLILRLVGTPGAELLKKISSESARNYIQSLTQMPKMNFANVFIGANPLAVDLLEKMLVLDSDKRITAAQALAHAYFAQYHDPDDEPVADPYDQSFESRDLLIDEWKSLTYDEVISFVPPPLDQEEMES
Sequence of EGFR (human) (P00533 whole entry, looked up): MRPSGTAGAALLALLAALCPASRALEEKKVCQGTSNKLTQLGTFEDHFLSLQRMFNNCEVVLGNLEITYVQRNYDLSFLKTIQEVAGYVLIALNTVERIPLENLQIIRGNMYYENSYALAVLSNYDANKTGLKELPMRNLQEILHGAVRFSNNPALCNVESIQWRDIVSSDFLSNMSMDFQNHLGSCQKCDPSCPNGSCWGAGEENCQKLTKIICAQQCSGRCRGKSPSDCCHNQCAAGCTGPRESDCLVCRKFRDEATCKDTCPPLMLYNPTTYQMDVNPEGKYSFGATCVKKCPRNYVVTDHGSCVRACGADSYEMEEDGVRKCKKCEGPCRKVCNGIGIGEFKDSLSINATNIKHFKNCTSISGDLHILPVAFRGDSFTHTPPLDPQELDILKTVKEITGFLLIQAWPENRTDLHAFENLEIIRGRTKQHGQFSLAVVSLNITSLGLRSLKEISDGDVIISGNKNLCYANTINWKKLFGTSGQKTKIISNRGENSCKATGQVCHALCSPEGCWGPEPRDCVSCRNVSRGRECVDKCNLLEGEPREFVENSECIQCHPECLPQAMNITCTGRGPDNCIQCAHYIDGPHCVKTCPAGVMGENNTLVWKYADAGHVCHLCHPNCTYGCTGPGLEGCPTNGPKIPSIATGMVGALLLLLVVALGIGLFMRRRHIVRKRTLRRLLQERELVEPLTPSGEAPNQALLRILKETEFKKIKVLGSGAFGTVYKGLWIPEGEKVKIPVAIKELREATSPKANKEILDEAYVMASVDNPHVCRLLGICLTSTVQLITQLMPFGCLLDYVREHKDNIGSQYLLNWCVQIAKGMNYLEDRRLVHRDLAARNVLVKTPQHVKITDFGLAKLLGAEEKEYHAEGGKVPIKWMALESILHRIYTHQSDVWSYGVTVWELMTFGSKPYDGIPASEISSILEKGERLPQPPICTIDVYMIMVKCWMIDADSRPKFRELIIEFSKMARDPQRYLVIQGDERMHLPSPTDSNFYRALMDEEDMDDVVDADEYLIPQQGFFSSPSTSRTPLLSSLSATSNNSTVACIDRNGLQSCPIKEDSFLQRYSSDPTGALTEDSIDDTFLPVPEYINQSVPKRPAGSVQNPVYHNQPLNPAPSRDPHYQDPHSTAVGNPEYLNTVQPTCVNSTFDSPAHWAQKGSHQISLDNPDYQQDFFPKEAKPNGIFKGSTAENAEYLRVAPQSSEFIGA
Sequence of EGFR (P00533 whole entry, looked up): as above
Sequence of PIK3CA (human) (P42336 whole entry, looked up): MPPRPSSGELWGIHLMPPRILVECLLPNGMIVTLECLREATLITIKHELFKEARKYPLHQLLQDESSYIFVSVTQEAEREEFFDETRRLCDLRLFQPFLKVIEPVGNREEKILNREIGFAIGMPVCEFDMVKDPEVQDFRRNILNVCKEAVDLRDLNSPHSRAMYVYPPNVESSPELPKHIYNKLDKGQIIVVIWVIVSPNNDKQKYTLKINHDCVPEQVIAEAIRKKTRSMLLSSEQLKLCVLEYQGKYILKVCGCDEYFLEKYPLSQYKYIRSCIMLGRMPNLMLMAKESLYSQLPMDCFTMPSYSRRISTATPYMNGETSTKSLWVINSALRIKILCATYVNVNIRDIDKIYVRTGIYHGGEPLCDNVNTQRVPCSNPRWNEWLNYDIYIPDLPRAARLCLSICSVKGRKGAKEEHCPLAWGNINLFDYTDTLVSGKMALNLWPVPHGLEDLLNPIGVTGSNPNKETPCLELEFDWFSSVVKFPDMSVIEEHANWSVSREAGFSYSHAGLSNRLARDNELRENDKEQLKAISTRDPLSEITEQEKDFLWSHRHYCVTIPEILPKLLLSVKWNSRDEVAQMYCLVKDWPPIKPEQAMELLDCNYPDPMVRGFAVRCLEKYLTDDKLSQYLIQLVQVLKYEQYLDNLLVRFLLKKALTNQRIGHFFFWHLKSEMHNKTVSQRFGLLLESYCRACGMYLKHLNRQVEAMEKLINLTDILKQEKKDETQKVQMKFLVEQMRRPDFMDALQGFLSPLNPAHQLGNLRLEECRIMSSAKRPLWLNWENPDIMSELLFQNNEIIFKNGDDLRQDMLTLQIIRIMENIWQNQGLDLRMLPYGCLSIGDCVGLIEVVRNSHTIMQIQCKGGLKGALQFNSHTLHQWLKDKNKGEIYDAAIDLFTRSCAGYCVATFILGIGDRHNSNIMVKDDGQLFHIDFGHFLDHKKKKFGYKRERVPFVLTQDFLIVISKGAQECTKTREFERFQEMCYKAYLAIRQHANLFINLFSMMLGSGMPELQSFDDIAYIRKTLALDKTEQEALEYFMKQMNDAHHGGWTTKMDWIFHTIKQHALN
Sequence of PIK3CA (bovine) (P32871 whole entry, looked up): as the sequence (P42336 whole entry, looked up) above, with K532R, S535C counted along it
Sequence of PIK3CB;PIK3CD;PIK3CA (human) (O00329 whole entry, looked up): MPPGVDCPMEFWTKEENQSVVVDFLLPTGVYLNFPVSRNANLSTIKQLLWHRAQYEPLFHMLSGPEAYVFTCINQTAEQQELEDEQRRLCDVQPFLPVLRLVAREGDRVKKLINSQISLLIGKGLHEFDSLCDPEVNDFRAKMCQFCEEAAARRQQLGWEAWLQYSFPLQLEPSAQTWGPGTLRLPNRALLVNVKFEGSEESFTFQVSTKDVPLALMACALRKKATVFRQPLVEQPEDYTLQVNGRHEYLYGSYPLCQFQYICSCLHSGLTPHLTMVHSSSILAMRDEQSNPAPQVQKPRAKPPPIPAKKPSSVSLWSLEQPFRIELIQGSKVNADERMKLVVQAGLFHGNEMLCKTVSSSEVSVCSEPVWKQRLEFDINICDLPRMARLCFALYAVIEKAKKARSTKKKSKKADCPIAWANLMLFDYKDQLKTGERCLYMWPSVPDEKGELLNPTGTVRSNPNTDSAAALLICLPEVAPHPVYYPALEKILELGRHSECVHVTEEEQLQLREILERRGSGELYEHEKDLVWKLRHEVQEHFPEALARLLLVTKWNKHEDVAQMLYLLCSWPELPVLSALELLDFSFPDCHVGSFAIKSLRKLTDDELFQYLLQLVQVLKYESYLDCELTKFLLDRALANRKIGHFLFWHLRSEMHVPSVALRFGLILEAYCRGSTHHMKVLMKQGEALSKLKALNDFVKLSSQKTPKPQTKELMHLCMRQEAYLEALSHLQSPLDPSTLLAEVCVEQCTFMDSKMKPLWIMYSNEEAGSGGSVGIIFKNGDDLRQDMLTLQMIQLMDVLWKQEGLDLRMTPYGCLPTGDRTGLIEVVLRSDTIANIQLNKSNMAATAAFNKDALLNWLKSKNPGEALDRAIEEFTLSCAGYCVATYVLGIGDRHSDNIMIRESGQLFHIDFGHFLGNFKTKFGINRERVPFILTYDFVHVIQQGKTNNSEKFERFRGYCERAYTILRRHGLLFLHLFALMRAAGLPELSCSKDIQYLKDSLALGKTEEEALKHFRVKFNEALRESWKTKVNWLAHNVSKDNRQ

inhibition (EGFR (human) [1]): < 50%
Structure (SMILES): CCc1nc2c(NC(C)(C)C)nc(Nc3ccc4ncsc4c3)nc2[nH]1

pIC50 [2]: 7.00 to 9.00
Structure (SMILES): COc1cnc2[nH]c3cnc(-c4cccnc4)cc3c2c1-c1ccc(NS(C)(=O)=O)cc1

pIC50 (EGFR (human) [3]): ≥ 7.00
Structure (SMILES): COc1cc2ncnc(Nc3ccc4occc4c3)c2cc1OCCCCCCC(=O)NO

pIC50 [4]: 4.27
Structure (SMILES): CS(=O)(=O)Cc1cc(N2CCOCC2)nc(-c2ccc(NS(C)(=O)=O)cc2)n1

pIC50 (EGFR [5]): < 4.30
Structure (SMILES): CCNC(=O)Nc1nc2nc(NCCCCN(CC)CC)ncc2cc1-c1cc(OC)cc(OC)c1

pIC50 (EGFR (human) [3]): ≥ 7.00
Structure (SMILES): COc1cc2c(Nc3ccc4[nH]c(C)cc4c3F)ncnc2cc1OCCCCCCC(=O)NO

Structure (SMILES): C[C@H](Nc1ncnc2[nH]cnc12)C1=C(c2ccccc2)[NH+]([O-])c2cc(F)ccc2C1 (some centres undefined)
pIC50 [6]: 8.33

Structure (SMILES): C=C=CCCCOc1cc2c(Nc3ccc(F)c(Cl)c3)ncnc2cc1OC
GI50 (EGFR (human) [7]): 0.268 µM

pIC50 (EGFR (human) [8]): 8.35
Structure (SMILES): C=C=CCCCCCOc1cc2c(Nc3ccc(F)c(Cl)c3)ncnc2cc1OC
GI50 (EGFR (human) [7]): 0.586 µM

pIC50 (EGFR (human) [9]): < 3.70
pIC50 (EGFR (human) [10]): < 3.70
Structure (SMILES): Cc1ccccc1Cc1cc2c(Nc3ccc(Cl)cc3F)nc(N)nc2[nH]1

pIC50 (EGFR (human) [11]): 7.64
Structure (SMILES): CNC(=O)[C@H]1C[C@H](Oc2cc3c(Nc4cccc(Cl)c4F)ncnc3cc2OC)CCN1C

pIC50 (PIK3CA (bovine)): < 4.52
Structure (SMILES): c1ccc(-c2nc(N3CCOCC3)c3sc4ccccc4c3n2)cc1

pIC50 (EGFR [12]): < 4.52
pIC50 (EGFR [13]): < 4.52
Structure (SMILES): COc1ccc2[nH]c3c(-c4ccccc4OC)nc4c(c3c2c1)C(=O)NC4=O

pIC50 (PIK3CA (human) [14]): < 4.70
pIC50 (PIK3CA (human) [15]): < 4.70
Structure (SMILES): Cc1ccc([N+](=O)[O-])cc1S(=O)(=O)N(C)N=Cc1cccc2ccccc12

pIC50 (PIK3CA (human) [16]): < 4.70
pIC50 (PIK3CA (human) [17]): < 4.70
Structure (SMILES): Cc1ccc([N+](=O)[O-])cc1S(=O)(=O)N(C)N=Cc1cnn2ccc(O)cc12

pIC50 (EGFR [18]): 6.67
Structure (SMILES): CS(=O)(=O)N1CCC(COc2ccc3ncnc(Nc4ccc(OCc5ccccn5)c(Cl)c4)c3c2)C1 (centres undefined)

pIC50 (PIK3CA (human) [19]): 5.21
Structure (SMILES): CS(=O)(=O)Nc1cccc(-c2cc(N3CCOCC3)nc(OCc3ccccn3)n2)c1
GI50 (PIK3CA (human) [20]): 13.5 µM

pIC50 (PIK3CA (human) [17]): < 4.70
Structure (SMILES): Cc1ccc([N+](=O)[O-])cc1S(=O)(=O)N(C)N=Cc1cnn2cccc(C)c12

pIC50 (MAPK14 (human) [21]): 7.32
pIC50 (EGFR (human) [22]): > 6.00
Structure (SMILES): CN1CCC(c2[nH]nc(-c3ccc(Cl)cc3)c2-c2ccncn2)CC1

Structure (SMILES): Cc1ccc([N+](=O)[O-])cc1S(=O)(=O)N(C)N=Cc1cncn1C
pIC50 (PIK3CA (human) [14]): < 4.70
pIC50 (PIK3CA (human) [15]): < 4.70

pIC50 (EGFR [12]): < 4.52
pIC50 (EGFR [13]): 5.05
Structure (SMILES): COc1ccc2[nH]c3c(-c4ccccc4)nc4c(c3c2c1)C(=O)NC4=O

pIC50 (EGFR [12]): < 4.52
pIC50 (EGFR [13]): < 4.52
Structure (SMILES): COc1cc2[nH]c3c(-c4ccccc4C)nc4c(c3c2cc1OC)C(=O)NC4=O

pIC50 (EGFR (human) [11]): 7.21
Structure (SMILES): CNC(=O)[C@@H]1C[C@@H](Oc2cc3c(Nc4cccc(Cl)c4F)ncnc3cc2OC)CCN1C

pIC50 (PIK3CA (bovine)): 7.00
Structure (SMILES): COc1cccc(-c2nc(N3CCOCC3)c3oc4ncccc4c3n2)c1

inhibition (EGFR (human) [23]): -27%
Structure (SMILES): COCCOc1cc2ncnc(NC3=CC(=O)C(OCc4cccc(F)c4)=CC3=O)c2cc1OC

pIC50 (MAPK14 (human) [24]): < 5.00
pIC50 (MAPK14 (human) [25]): < 5.00
Structure (SMILES): CSc1nc(-c2ccc(F)cc2)c(-c2ccnc(NC(C)=O)c2)n1CCN1CCOCC1

pIC50 (EGFR (human) [26]): 5.48
Structure (SMILES): CN(c1ccc(N2CCOCC2)cc1)c1ncnc2nc(Nc3ccc(S(N)(=O)=O)cc3)sc12

pIC50 (PIK3CB (Human)): 4.40
Structure (SMILES): CN(C)c1cc(-c2ccc3ncccc3c2)cnc1Cl

inhibition (EGFR (human) [1]): 65 to 80%
Structure (SMILES): CC(C)(C)Nc1nc(Nc2ccc3ncsc3c2)nc2[nH]cnc12

pIC50 (EGFR (human) [27]): 7.62
Structure (SMILES): Cc1ncnc(Nc2ccc(OCc3cccc(F)c3)c(Cl)c2)c1-c1ccc(CNC(C)C)cc1

pIC50 (EGFR (human) [22]): 7.00
Structure (SMILES): O=C(CO)N1CCC(c2[nH]nc(-c3ccc(Cl)cc3)c2-c2ccncn2)CC1

pIC50 (EGFR (human) [27]): 7.01
Structure (SMILES): Cc1ncnc(Nc2ccc(OCc3cccc(F)c3)c(Cl)c2)c1-c1ccc(CNC2CC2)cc1

pIC50 (EGFR (human) [26]): 5.00
Structure (SMILES): CCN(c1ccc(N2CCOCC2)cc1)c1ncnc2nc(Nc3ccc(S(N)(=O)=O)cc3)sc12
